Our source for the IC50 values is US20230041743A1, “1,8-NAPHTHYRIDIN-2-ONE COMPOUNDS FOR THE TREATMENT OF AUTOIMMUNE DISEASE” (Hoffmann-La Roche Inc., priority 2019, published 2023).

In the test the target is T1, human TLR9 (Homo sapiens, UniProt Q9NR96).
T1 construct: host or cells: HEK293 (HEK-Blue hTLR9)
T1 sequence (Q9NR96 26-1032): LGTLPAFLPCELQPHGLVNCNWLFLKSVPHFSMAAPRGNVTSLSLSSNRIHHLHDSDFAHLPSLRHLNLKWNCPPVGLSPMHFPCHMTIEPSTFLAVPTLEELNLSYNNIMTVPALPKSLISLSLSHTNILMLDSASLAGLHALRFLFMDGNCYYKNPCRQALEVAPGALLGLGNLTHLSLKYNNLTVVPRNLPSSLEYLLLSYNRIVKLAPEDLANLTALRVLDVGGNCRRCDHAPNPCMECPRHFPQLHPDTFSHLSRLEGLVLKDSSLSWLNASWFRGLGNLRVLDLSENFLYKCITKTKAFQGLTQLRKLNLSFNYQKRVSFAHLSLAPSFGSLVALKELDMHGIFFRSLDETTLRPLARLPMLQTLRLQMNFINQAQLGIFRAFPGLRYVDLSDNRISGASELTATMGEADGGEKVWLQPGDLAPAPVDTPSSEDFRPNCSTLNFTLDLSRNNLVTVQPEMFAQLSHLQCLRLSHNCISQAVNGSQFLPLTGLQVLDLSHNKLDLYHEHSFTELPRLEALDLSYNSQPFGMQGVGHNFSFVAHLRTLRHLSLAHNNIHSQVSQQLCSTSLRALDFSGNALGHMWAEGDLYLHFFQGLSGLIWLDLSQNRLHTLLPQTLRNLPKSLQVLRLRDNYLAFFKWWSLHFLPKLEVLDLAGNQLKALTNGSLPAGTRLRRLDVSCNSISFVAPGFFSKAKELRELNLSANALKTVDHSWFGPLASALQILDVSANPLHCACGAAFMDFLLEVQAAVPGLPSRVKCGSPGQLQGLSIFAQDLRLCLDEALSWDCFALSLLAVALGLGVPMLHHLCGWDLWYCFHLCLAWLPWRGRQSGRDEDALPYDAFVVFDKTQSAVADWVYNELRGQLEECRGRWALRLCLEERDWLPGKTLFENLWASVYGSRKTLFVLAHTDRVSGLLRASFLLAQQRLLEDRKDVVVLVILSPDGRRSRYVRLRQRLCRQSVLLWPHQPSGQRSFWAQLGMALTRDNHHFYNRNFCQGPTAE
The experiment in a line: HEK293-Blue-hTLR-9 cells assay (SEAP reporter, ODN2006 stimulation). Type of test: cell-based. As to conditions: HEK293-Blue-hTLR9 cells, ODN2006 ligand, 20 hrs incubation; read-out: HEK/hTLR9 IC50. The source says:
HEK293-Blue-hTLR-9 Cells Assay:
A stable HEK293-Blue-hTLR-9 cell line was purchased from InvivoGen (Cat. #: hkb-htlr9, San Diego, Calif., USA). These cells were originally designed for studying the stimulation of human TLR9 by monitoring the activation of NF-κB. A SEAP (secreted embryonic alkaline phosphatase) reporter gene was placed under the control of the IFN-β minimal promoter fused to five NF-κB and AP-1-binding sites. The SEAP was induced by activating NF-κB and AP-1 via stimulating HEK-Blue hTLR9 cells with TLR9 ligands. Therefore the reporter expression was declined by TLR9 antagonist under the stimulation of a ligand, such as ODN2006 (Cat. #: tlrl-2006-1, Invivogen, San Diego, Calif., USA), for incubation of 20 hrs. The cell culture supernatant SEAP reporter activity was determined using QUANTI-Blue™ kit (Cat. #: rep-qb1, Invivogen, San Diego, Calif., USA) at a wavelength of 640 nm, a detection medium that turns purple or blue in the presence of alkaline phosphatase.
HEK293-Blue-hTLR9 cells were incubated at a density of 250,000˜450,000 cells/mL in a volume of 170 μL in a 96-well plate in Dulbecco's Modified Eagle's medium (DMEM) containing 4.5 g/L glucose, 50 U/mL penicillin, […], 2 mM L-glutamine, 10% (v/v) heat-inactivated fetal bovine serum with addition of 20 μL test compound in a serial dilution in the presence of final DMSO at 1% and 10 μL of 20 uM ODN2006 in above DMEM, perform incubation under 37° C. in a CO2 incubator for 20 hrs. Then 20 μL of the supernatant from each well was incubated with 180 μL Quanti-blue substrate solution at 37° C. for 2 h and the absorbance was read at 620˜655 nm using a spectrophotometer. The signaling pathway that TLR9 activation leads to downstream NF-κB activation has been widely accepted, and therefore similar reporter assay was modified for evaluating TLR9 antagonist.
Take `C[C@@H]1CN(c2cc(=O)n(C)c3ncccc23)C[C@@H]2c3ccc(N4C[C@@H]5C[C@H]4CN5)cc3CN12` [Example 19, 4-[(4R,10bS)-8-[(1S,4S)-2,5-diazabicyclo[2.2.1]heptan-2-yl]-4-methyl-3,4,6,10b-tetrahydro-1H-pyrazino[2,1-a]isoindol-2-yl]-1-methyl-1,8-naphthyridin-2-one]: the IC50 turned out to be 116 nM. As to `C[C@@H]1CN(c2cc(=O)n(C)c3ncccc23)C[C@@H]2c3ccc(N4C[C@H]5C[C@@H]4CN5)cc3CN12` [Example 20, 4-[(4R,10bS)-8-[(1R,4R)-2,5-diazabicyclo[2.2.1]heptan-2-yl]-4-methyl-3,4,6,10b-tetrahydro-1H-pyrazino[2,1-a]isoindol-2-yl]-1-methyl-1,8-naphthyridin-2-one], the IC50 was determined as 96 nM. To `C[C@@H]1CN(c2cc(=O)n(C)c3ncccc23)C[C@@H]2c3ccc(N4CC5CCC(C4)N5)cc3CN12` [Example 21, 4-[(4R,10bS)-8-(3,8-diazabicyclo[3.2.1]octan-3-yl)-4-methyl-3,4,6,10b-tetrahydro-1H-pyrazino[2,1-a]isoindol-2-yl]-1-methyl-1,8-naphthyridin-2-one] belongs 138 nM; to `C[C@@H]1CN(c2cc(=O)n(C)c3ncccc23)C[C@@H]2c3ccc(N4CCOC[C@H](N)C4)cc3CN12` [Example 22, 4-[(4R,10bS)-8-[(6R)-6-amino-1,4-oxazepan-4-yl]-4-methyl-3,4,6,10b-tetrahydro-1H-pyrazino[2,1-a]isoindol-2-yl]-1-methyl-1,8-naphthyridin-2-one], 113 nM. With `C[C@@H]1CN(c2cc(=O)n(C)c3ncccc23)C[C@@H]2c3ccc(OCCN(C)C)cc3CN12` [Example 23, 4-[(4R,10bS)-8-[2-(dimethylamino)ethoxy]-4-methyl-3,4,6,10b-tetrahydro-1H-pyrazino[2,1-a]isoindol-2-yl]-1-methyl-1,8-naphthyridin-2-one], the IC50 stood at 213 nM. As for `C[C@@H]1CN(c2cc(=O)n(C)c3ncccc23)C[C@@H]2c3ccc(C4CCNCC4)cc3CN12` [Example 24, 4-[(4R,10bS)-4-methyl-8-(4-piperidyl)-3,4,6,10b-tetrahydro-1H-pyrazino[2,1-a]isoindol-2-yl]-1-methyl-1,8-naphthyridin-2-one], the IC50 was 156 nM.

`C[C@@H]1CN(c2cc(=O)n(C)c3ncccc23)C[C@@H]2c3ccc(C4CCCNC4)cc3CN12` (stereo partly drawn) [Example 25, 4-[(4R,10bS)-4-methyl-8-(3-piperidyl)-3,4,6,10b-tetrahydro-1H-pyrazino[2,1-a]isoindol-2-yl]-1-methyl-1,8-naphthyridin-2-one]: the IC50 was 124 nM. To `C[C@@H]1CN(c2cc(=O)n(C)c3ncccc23)C[C@@H]2c3ccc(C4CCNC4)cc3CN12` (stereo partly drawn) [Example 26, 4-[(4R,10bS)-4-methyl-8-pyrrolidin-3-yl-3,4,6,10b-tetrahydro-1H-pyrazino[2,1-a]isoindol-2-yl]-1-methyl-1,8-naphthyridin-2-one] belongs 132 nM. For the compound `C[C@@H]1CN(c2cc(=O)n(C)c3ncccc23)C[C@@H]2c3ccc([C@H]4CC[C@H](N5CCOCC5)CC4)cc3CN12` [Example 27A, 4-[(4R,10bS)-4-methyl-8-(trans-4-morpholinocyclohexyl)-3,4,6,10b-tetrahydro-1H-pyrazino[2,1-a]isoindol-2-yl]-1-methyl-1,8-naphthyridin-2-one], the IC50 turned out to be 99 nM. As to `C[C@@H]1CN(c2cc(=O)n(C)c3ncccc23)C[C@@H]2c3ccc([C@H]4CC[C@@H](N5CCOCC5)CC4)cc3CN12` [Example 27B, 4-[(4R,10bS)-4-methyl-8-(cis-4-morpholinocyclohexyl)-3,4,6,10b-tetrahydro-1H-pyrazino[2,1-a]isoindol-2-yl]-1-methyl-1,8-naphthyridin-2-one], the IC50 is 105 nM. To `C[C@@H]1CN(c2cc(=O)n(C)c3ncccc23)C[C@@H]2c3ccc([C@H]4C[C@H]5COC[C@@H](C4)N5)cc3CN12` [Example 28A, 4-[(4R,10bS)-4-methyl-8-(endo-3-oxa-9-azabicyclo[3.3.1]nonan-7-yl)-3,4,6,10b-tetrahydro-1H-pyrazino[2,1-a]isoindol-2-yl]-1-methyl-1,8-naphthyridin-2-one] belongs 153 nM; to `C[C@@H]1CN(c2cc(=O)n(C)c3ncccc23)C[C@@H]2c3ccc([C@@H]4C[C@H]5COC[C@@H](C4)N5)cc3CN12` [Example 28B, 4-[(4R,10bS)-4-methyl-8-(exo-3-oxa-9-azabicyclo[3.3.1]nonan-7-yl)-3,4,6,10b-tetrahydro-1H-pyrazino[2,1-a]isoindol-2-yl]-1-methyl-1,8-naphthyridin-2-one], 255 nM.

For the compound `CCn1c(=O)cc(N2C[C@@H](C)N3Cc4cc(N5C[C@@H](N)[C@H](OC)C5)ccc4[C@H]3C2)c2cccnc21` [Example 29, 4-[(4R,10bS)-8-[(3R,4R)-3-amino-4-methoxy-pyrrolidin-1-yl]-4-methyl-3,4,6,10b-tetrahydro-1H-pyrazino[2,1-a]isoindol-2-yl]-1-ethyl-1,8-naphthyridin-2-one], the IC50 amounted to 340 nM.
